Where a name gives a salt, the structure may show the parent alone.
What was measured:
RS4; 11 (FLT3 wild type) = assay: In vitro growth inhibition (GI50), RS4; 11; assay type: cell-based, human; details: Homo sapiens, RS4-11; Cell lines of leukemia; read-out: GI 50 RS4: 11 FLT3 (WT)
[1] = test system: OCI-AML3 (NPMc+ mutant type); assay: In vitro growth inhibition (GI50), OCI-AML3; assay type: cell-based; details: Homo sapiens, OCI-AML-3; Cell lines of leukemia; read-out: GI 50 OCI- AML3 NPMc+
U937 (FLT3 wild-type) = assay: In vitro growth inhibition (GI50), U937; assay type: cell-based; details: Homo sapiens, U-937; Cell lines of leukemia; read-out: GI 50 U937 FLT 3(WT)
[2] = test system: MV4-11 (FLT3 ITD+/+ mutant type); assay: In vitro growth inhibition (GI50), MV4-11; assay type: cell-based, human; details: for GI50: Homo sapiens, MV4-11, Cell lines of leukemia, read-out: GI 50 MV4-11 FLT3 (ITD +/+)
HL-60 (FLT3 wild type) = assay: In vitro growth inhibition (GI50), HL-60; assay type: cell-based; details: Homo sapiens, Cell lines of leukemia, read-out: GI 50 HL60 FLT3 (WT)
Summary of the method: (§1)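 Cells in RPMI1640 with 10% FBS, seeded at 5–10×10^4 cells/mL, exposed next day to compound at 5,000 nM down to 0.01 nM (2- or 10-fold dilutions, ≤1% solvent) for 3–5 days at 37 °C. CCK8 absorbance at 450 nm, growth rate relative to pre-treatment and solvent controls, GI50 from concentration–growth curve.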

[3] = test system: Kasumi-1 (c-Kit N822K mutant type); assay: In vitro growth inhibition (GI50), Kasumi-1; assay type: cell-based; details: Homo sapiens, Cell lines of leukemia, read-out: GI 50 Kasumi-1 Kit (N822K)
Summary of the method: as §1

[4] = test system: MOLM-13 (FLT3 ITD+/− mutant type); assay: In vitro growth inhibition (GI50), MOLM-13; assay type: cell-based, human; details: for GI50: Homo sapiens, MOLM-13, Cell lines of leukemia, read-out: GI 50 MOLM-13 FLT3 (ITD+/−)
[5] = test system: KG-1 (expressing FGFR1OP2-FGFR1 fusion protein); assay: In vitro growth inhibition (GI50), KG-1; assay type: cell-based; details: Homo sapiens; Cell lines of leukemia; read-out: GI 50 KG-1 FGFR1OP 2-FGFR1
Solubility test = assay type: physicochemical; details: in water at 25° C.±2° C.
Procedure: The fine powder of the test sample was weighed into an appropriate amount of water at 25° C.±2° C. and shaken vigorously for 30 seconds every 5 minutes so that it was fully dissolved within 30 minutes. If no visible solute particles were observed, it was considered completely dissolved. “Readily soluble” means that 1 g of the test sample could be dissolved in 1-10 ml of water; and “soluble” means that 1 g of the test sample could be dissolved in 10-30 ml of water; “slightly soluble” means that 1 g of the test sample could be dissolved in 30-100 ml of water; and “sparingly soluble” means that 1 g of the test sample could be dissolved in 100-1,000 ml of water; “nearly insoluble or insoluble” means that 1 g of the test sample could not be completely dissolved in 10,000 ml of water.

[6] = test system: RAMOS (positive expression of Brutons tyrosine protein kinase); assay: In vitro growth inhibition (GI50), RAMOS; assay type: cell-based; details: Homo sapiens, Cell lines of leukemia, read-out: GI 50 Ramos BTK
[7] = test system: K562 (FLT3 negative expression, positive expression of BCR-ABL fusion protein); assay: In vitro growth inhibition (GI50), K562; assay type: cell-based; details: Homo sapiens, Cell lines of leukemia, read-out: GI 50 K562 BCR-ABL
[8] = Stability test: intense light test (4500LX); assay type: physicochemical; details: 4500LX±500LX light for 10 days, HPLC
Procedure: The test samples were placed into an integrated drug stability test chamber (YSEI) in an exposed way under 4500LX±500LX light for 10 days. Samples were taken on the 5th and 10th days and tested according to the drug stability test indices.
(§2) An appropriate amount of test samples was taken and dissolved in acetonitrile-water (1:1), and quantitatively diluted to a solution of about 0.3 mg/ml. 20 ul of solution was injected into a liquid chromatograph (Agilent 1260 Infinity), the chromatogram was then recorded and calculated according to the percentage area method. The mobile phase was a phosphate buffer and acetonitrile aqueous solution, and then a gradient elution was carried out.

[9] = Stability test: high humidity test (90%); assay type: physicochemical; details: 25° C., relative humidity 90%±5%, 10 days, HPLC
Procedure: The test samples were placed into an integrated drug stability test chamber (YSEI) in an exposed way at 25° C. and relative humidity of 90%±5% for 10 days. Samples were taken on the 5th and 10th days and tested according to the drug stability test indices.
as §2

[10] = Stability test: high temperature test (60° C.); assay type: physicochemical; details: exposed at 60° C. for 10 days, HPLC
Procedure: The test samples were placed into an integrated drug stability test chamber (YSEI) in an exposed way at 60° C. for 10 days. Samples were taken on the 5th and 10th days and tested according to the drug stability test indices.
as §2

rat plasma protein = assay: Binding rate to plasma protein of rats (dialysis method); assay type: in vitro ADME; details: dialysis, 4 h, 37° C.; test substance 2 uM, positive control 1 uM
Procedure: The binding rate of compound 77 of the present invention to plasma protein at a rat plasma concentration of 2 uM was evaluated by dialysis method.
Procedure: The DMSO stock solution of compound 77 (10 mM) or the positive control propranolol (USP) was added to 500 uL of blank plasma. The final concentration of test substance in the plasma was 2 uM, and the final concentration of the positive control was 1 uM, in triplicate. 300 uL of prepared plasma samples was added to the plasma chamber, and 500 uL of dialysis buffer was added to the buffer chamber (phosphate buffer solution PBS contained 100 mM sodium phosphate and 150 mM sodium chloride, PH 7.2), sealed, and incubated for 4 h while shaking at 100 rpm, 37° C. After incubation, 50 uL sample was taken from the plasma chamber and buffer chamber, and 50 uL of PBS was added to plasma chamber samples, and 50 uL of blank plasma was added to the buffer chamber samples. Immediately, 3-fold methanol solution containing internal standard was added, to precipitate plasma protein. After centrifugation, the supernatant was taken for LC/MS/MS analysis. The plasma protein binding rate was calculated according to the following formula: % free state=(peak area ratio in the buffer chamber/the peak area ratio in the plasma chamber)×%, % binding state=100%−% free state.

[11] = compared with the control compound AC220

| GI50 (RS4; 11 (FLT3 wild type)) | GI50 [1] | GI50 (U937 (FLT3 wild-type)) | GI50 [2] | GI50 (HL-60 (FLT3 wild type)) | GI50 [4] | GI50 [6] | GI50 [7] | Structure (SMILES) | GI50 [3] | GI50 [5] | other results |
| --- | --- | --- | --- | --- | --- | --- | --- | --- | --- | --- | --- |
| 10 to 100 nM | > 1000 nM | 100 to 1000 nM | 0.01 to 0.1 nM | 100 to 1000 nM | 0.01 to 0.1 nM | 100 to 1000 nM | 100 to 1000 nM | CN(C)CCCOc1ccc2c(c1)ncn2-c1ccc(NC(=O)Nc2cc(C(C)(C)C)n[nH]2)cc1 [Compound 81] | > 1000 nM | > 1000 nM | inhibition activity against the growth of MV4-11 cells compared with AC220 [2, 11]: stronger inhibition activity; inhibition activity against the growth of MOLM-13 cells compared with AC220 [4, 11]: stronger inhibition activity; Solubility (Solubility test; listed as 81 Free base): insoluble (“nearly insoluble or insoluble” means that 1 g of the test sample could not be completely dissolved in 10,000 ml of water) |
| > 1000 nM | > 1000 nM | > 1000 nM | 100 to 1000 nM | > 1000 nM | 100 to 1000 nM | > 1000 nM | > 1000 nM | CC(C)(C)c1cc(N)n(C(=O)Nc2ccc(-n3cnc4cc(OCCO)ccc43)cc2)n1 [Compound 121, 5-amino-3-tert-butyl-pyrazol-1-carboxylic acid {4-[5-(2-hydroxy-ethoxyl)-benzimidazol-1-yl]-phenyl}-amide] | > 1000 nM | > 1000 nM | Solubility (Solubility test; listed as 121 Free base): insoluble (“nearly insoluble or insoluble” means that 1 g of the test sample could not be completely dissolved in 10,000 ml of water) |
| – | – | – | – | – | – | – | – | CC(C)(C)c1cc(NC(=O)Nc2ccc(-n3cnc4cc(OCCN5CCOCC5)ccc43)cc2)no1 [Compound 16 Hydrochloride, 1-(5-tert-butyl-isoxazol-3-yl)-3-{4-[5-(2-morpholin-4-yl-ethoxyl)-benzimidazol-1-yl]-phenyl}-urea] | – | – | Lighting (4500 LX) [8]: stable; High Humidity (90%) [9]: stable; Solubility (Solubility test; listed as 16 Hydrochloride): soluble (“soluble” means that 1 g of the test sample could be dissolved in 10-30 ml of water); High temperature (60° C.) [10]: stable |
| > 1000 nM | > 1000 nM | > 1000 nM | 1 to 10 nM | > 1000 nM | 1 to 10 nM | > 1000 nM | > 1000 nM | COc1cc2ncn(-c3ccc(NC(=O)n4nc(C(C)(C)C)cc4N)cc3)c2cc1OC [Compound 129, 5-amino-3-tert-butyl-pyrazol-1-carboxylic acid [4-(5,6-dimethoxyl-benzimidazol-1-yl)-phenyl]-amide] | > 1000 nM | > 1000 nM | Solubility (Solubility test; listed as 129 Free base): insoluble (“nearly insoluble or insoluble” means that 1 g of the test sample could not be completely dissolved in 10,000 ml of water) |
| – | – | – | – | – | – | – | – | CC(C)NCC(O)COc1cccc2ccccc12 (stereo not drawn) [propranolol, reference compound] | – | – | binding rate to the rat plasma protein (rat plasma protein): 90.11% |
| > 1000 nM | > 1000 nM | > 1000 nM | 0.1 to 1 nM | > 1000 nM | 0.1 to 1 nM | > 1000 nM | > 1000 nM | COCCOc1ccc2ncn(-c3ccc(NC(=O)Nc4cc(C(C)(C)C)n[nH]4)cc3)c2c1 [Compound 98, 1-(5-tert-butyl-2H-pyrazol-3-yl)-3-{4-[6-(2-methoxyl-ethoxyl)-benzimidazol-1-yl]-phenyl}-urea] | > 1000 nM | > 1000 nM | Solubility (Solubility test; listed as 98 Free base): insoluble (“nearly insoluble or insoluble” means that 1 g of the test sample could not be completely dissolved in 10,000 ml of water) |
| > 1000 nM | > 1000 nM | > 1000 nM | 100 to 1000 nM | > 1000 nM | 100 to 1000 nM | > 1000 nM | > 1000 nM | CCCCCCOc1ccc2c(c1)ncn2-c1ccc(NC(=O)n2nc(C(C)(C)C)cc2N)cc1 [Compound 117, 5-amino-3-tert-butyl-pyrazol-1-carboxylic acid [4-(5-hexyloxyl-benzimidazol-1-yl)-phenyl]-amide] | > 1000 nM | > 1000 nM | Solubility (Solubility test; listed as 117 Free base): insoluble (“nearly insoluble or insoluble” means that 1 g of the test sample could not be completely dissolved in 10,000 ml of water) |
| – | – | – | – | – | – | – | – | COc1ccc2c(c1)ncn2-c1ccc(NC(=O)Nc2cc(C(C)(C)C)n[nH]2)cc1 [Compound 71 Mesylate, 1-(5-tert-butyl-2H-pyrazol-3-yl)-3-[4-(5-methoxyl-benzimidazol-1-yl)-phenyl]-urea] | – | – | Lighting (4500 LX) [8]: stable; High Humidity (90%) [9]: stable; Solubility (Solubility test; listed as 71 Mesylate): soluble (“soluble” means that 1 g of the test sample could be dissolved in 10-30 ml of water); High temperature (60° C.) [10]: stable |

— US10647680B2, “Urea compound, preparation method therefor and medical use thereof” (Ancureall Pharmaceutical (Shanghai) Co., Ltd., priority 2016, dated 2020)
